Experimental data taken from US8906825B2, “Herbicidal compositions comprising 4-amino-3-chloro-5-fluoro-6-(4-chloro-2-fluoro-3-methoxyphenyl) pyridine-2-carboxylic acid or a derivative thereof and triazolopyrimidine sulfonamides” (Dow AgroSciences LLC, priority 2012, dated 2014).

Key:
Type in all cases: in vivo
[1] = test system: BRAPP (Brachiaria platyphylla (Griseb.) Nash, broadleaf signalgrass); experiment: Postemergence foliar-applied herbicidal mixtures, direct seeded rice, greenhouse (Example I); conditions: Flumetsulam 6.25 gai/ha
From the text: (§1) Seeds or nutlets of the desired test plant species were planted in a soil matrix prepared by mixing a loam or sandy loam soil (e.g., 28.6 percent silt, 18.8 percent clay, and 52.6 percent sand, with a pH of about 5.8 and an organic matter content of about 1.8 percent) and calcareous grit in an 80 to 20 ratio. The soil matrix was contained in plastic pots with a volume of 1 quart and a surface area of 83.6 square centimeters (cm^2). When required to ensure good germination and healthy plants, a fungicide treatment and/or other chemical or physical treatment was applied. The plants were grown for 8-22 days in a greenhouse with an approximate 14 h photoperiod which was maintained at about 29° C. during the day and about 26° C. during the night. Nutrients (Peters Excel® 15-5-15 5-Ca 2-Mg and iron chelate) were applied in the irrigation solution as needed and water was added on a regular basis. Supplemental lighting was provided with overhead metal halide 1000-Watt lamps as necessary. The plants were employed for testing when they reached the first through fourth true leaf stage.
(§2) Treatments consisted of the acid or esters of 4-amino-3-chloro-5-fluoro-6-(4-chloro-2-fluoro-3-methoxy-phenyl)pyridine-2-carboxylic acid (Compound A), each formulated as an SC (suspension concentrate), and various herbicidal components alone and in combination. Forms of compound A were applied on an acid equivalent basis.
(§3) Other herbicidal components were applied on an active ingredient basis and included acetolactate synthase (ALS)-inhibiting herbicides (sulfonamide chemical class) penoxsulam formulated as Grasp® SC, diclosulam formulated as Strongarm®, and cloransulam-methyl formulated as FirstRate®, flumetsulam formulated as Flumetsulam WG, and metosulam formulated as Eclipse®.
(§4) Treatment requirements were calculated based upon the rates being tested, the concentration of active ingredient or acid equivalent in the formulation, and a 12 mL application volume at a rate of 187 L/ha.
(§5) For treatments comprised of formulated compounds, measured amounts of compounds were placed individually in 25 mL glass vials and diluted in a volume of 1.25% (v/v) Agri-Dex® crop oil concentrated to obtain 12× stock solutions. […] Application solutions were prepared by adding an appropriate amount of each stock solution (e.g., 1 mL) and diluted to the appropriate final concentrations with the addition of 10 mL of an aqueous mixture of 1.25% (v/v) crop oil concentrate so that the final spray solutions contained 1.25+/−0.05% (v/v) crop oil concentrate.
(§6) All stock solutions and applications solutions were visually inspected for compound compatibility prior to application. Spray solutions were applied to the plant material with an overhead Mandel track sprayer equipped with an 8002E nozzle calibrated to deliver 187 L/ha over an application area of 0.503 m^2 at a spray height of 18 to 20 inches (46 to 50 cm) above average plant canopy height. Control plants were sprayed in the same manner with the solvent blank.
(§7) The treated plants and control plants were placed in a greenhouse as described above and watered by sub-irrigation to prevent wash-off of the test compounds. After approximately 3 weeks, the condition of the test plants as compared with that of the untreated plants was determined visually and scored on a scale of 0 to 100 percent where 0 corresponds to no injury or growth inhibition and 100 corresponds to complete kill.
(§8) Colby's equation was used to determine the herbicidal effects expected from the mixtures (Colby, S. R. 1967. Calculation of the synergistic and antagonistic response of herbicide combinations. Weeds 15:20-22.).
(§9) The following equation was used to calculate the expected activity of mixtures containing two active ingredients, A and B: Expected=A+B−(A×B/100)

[2] = test system: CYPIR (Cyperus iria L., rice flatsedge); experiment: as above
From the text: as §1, §2, §3, §4, §5, §6, §7, §8, §9

[3] = test system: LEFCH (Leptochloa chinensis (L.) Nees, Chinese sprangletop); experiment: as above; conditions: Metosulam 6.25 gai/ha
From the text: as §1, §2, §3, §4, §5, §6, §7, §8, §9

[4] = test system: CIRAR (Cirsium arvense (L.) Scop., Canada thistle); experiment: Postemergence foliar-applied herbicidal mixtures, cereal crops, greenhouse (Example III); conditions: Pyroxsulam 3.75 gai/ha, visual score 0 to 100 percent after 20-22 days
Protocol: Seeds of the desired test plant species were planted in Sun Gro MetroMix® 306 planting mixture, which typically has a pH of 6.0 to 6.8 and an organic matter content of about 30 percent, in plastic pots with a surface area of 103.2 square centimeters (cm^2). […] The plants were grown for 7-36 days in a greenhouse with an approximate 14 hour photoperiod which was maintained at about 18° C. during the day and about 17° C. during the night. Nutrients and water were added on a regular basis and supplemental lighting was provided with overhead metal halide 1000-Watt lamps as necessary. The plants were employed for testing when they reached the second or third true leaf stage.
Treatments consisted of the benzyl ester of 4-amino-3-chloro-5-fluoro-6-(4-chloro-2-fluoro-3-methoxy-phenyl)pyridine-2-carboxylic acid (Compound A), formulated as an SC, a second cereal herbicide alone and then both in combination.
Other herbicidal components were applied on an active ingredient basis and included acetolactate synthase (ALS)-inhibiting herbicides (sulfonamide chemical class) florasulam formulated as Derby® and pyroxsulam formulated as PowerFlex®. A measured aliquot of benzyl ester of 4-amino-3-chloro-5-fluoro-6-(4-chloro-2-fluoro-3-methoxy-phenyl)pyridine-2-carboxylic acid (Compound A) was placed in 25 milliliter (mL) glass vials and diluted in a volume of 1.25% (v/v) AgriDex® crop oil concentrated to obtain a stock solution. Compound requirements are based upon a 12 mL application volume at a rate of 187 liters per hectare (L/ha). […] Formulated compounds were applied to the plant material with an overhead Mandel track sprayer equipped with an 8002E nozzle calibrated to deliver 187 L/ha over an application area of 0.503 square meters (m^2) at a spray height of 18 inches (46 cm) above average plant canopy. Control plants were sprayed in the same manner with the solvent blank.
as §7, with “20-22 days,” for “approximately 3 weeks,”, “control” for “untreated”, “injury” for “injury or growth inhibition”
as §8, §9

Compound: Cc1ccn2nc(S(=O)(=O)Nc3c(F)cccc3F)nc2n1 [Flumetsulam, N-(2,6-difluorophenyl)-5-methyl[1,2,4]triazolo[1,5-a]pyrimidine-2-sulfonamide, reference compound]
- Visual Weed Control (%) - 22 DAA BRAPP Obs [1]: 30%
- Visual Weed Control (%) - 22 DAA CYPIR Obs ([2]; Flumetsulam 6.25 gai/ha): 20%
- Visual Weed Control (%) - 22 DAA CYPIR Obs ([2]; Flumetsulam 12.5 gai/ha): 55%
- Visual Weed Control (%) - 22 DAA CYPIR Obs ([2]; Flumetsulam 25 gai/ha): 30%

Compound: COc1cc(OC)n2nc(S(=O)(=O)Nc3c(Cl)ccc(C)c3Cl)nc2n1 [Metosulam, N-(2,6-dichloro-3-methylphenyl)-5,7-dimethoxy[1,2,4]triazolo[1,5-a]pyrimidine-2-sulfonamide, reference compound]
- Visual Weed Control (%) - 22 DAA LEFCH Obs [3]: 15%

Compound: COc1cc(OC)n2nc(NS(=O)(=O)c3c(C(F)(F)F)ccnc3OC)nc2n1 [Pyroxsulam, N-(5,7-dimethoxy[1,2,4]triazolo[1,5-a]pyrimidin-2-yl)-2-methoxy-4-(trifluoromethyl)-3-pyridinesulfonamide, reference compound]
- CIRAR Obs [4]: 60%
